Key:
Barnyardgrass [1] = test: Test B pre-emergence on Fallsington silt loam; assay type: in vivo, Echinochloa crusgalli; settings: 0.12 kg/ha, 28 days
Excerpt: (§1) Two plastic bulb pans were filled with fertilized and limed Fallsington silt loam soil. One pan was planted with corn, sorghum, Kentucky bluegrass and several grassy weeds. The other pan was planted with cotton, soybeans, purple nutsedge (Cyperus rotundus), and several broadleaf weeds. The following grassy and broadleaf weeds were planted: crabgrass (Digitaria sanguinalis), barnyardgrass (Echinochloa crusgalli), wild oats (Avena fatua), johnsongrass (Sorghum halepense), dallisgrass (Paspalum dilatatum), giant foxtail (Setaria faberii), cheatgrass (Bromus secalinus), mustard (Brassica arvensis), cocklebur (Xanthium pensylvanicum), pigweed (Amaranthus retroflexus), morningglory (Ipomoea hederacea), cassia (Cassia tora), teaweed (Sida spinosa), velvetleaf (Abutilon theophrasti), and jimsonweed (Datura stramonium). A 12.5 cm diameter plastic pot was also filed with prepared soil and planted with rice and wheat. Another 12.5 cm pot was planted with sugarbeets. The above four containers were treated pre- emergence with several test compounds within the scope of the invention.
(§2) Twenty-eight days after treatment, the plants were evaluated and visually rated for response to the chemical treatments utilizing the rating system described previously for Test A. The data are summarized in Table B.

Johnsongrass = test: Test B pre-emergence on Fallsington silt loam; assay type: in vivo, Sorghum halepense; design: scale not given here; settings: 0.12 kg/ha, 28 days
Excerpt: as §1, §2

Giant Foxtail [2] = test: Test B pre-emergence on Fallsington silt loam; assay type: in vivo, Setaria faberii; settings: 0.12 kg/ha, 28 days
Excerpt: as §1, §2

Ky. bluegrass = test: Test B pre-emergence on Fallsington silt loam; assay type: in vivo, Kentucky bluegrass; design: scale not given here; settings: 0.12 kg/ha, 28 days
Excerpt: as §1, §2

Corn [3] = test: Test B pre-emergence on Fallsington silt loam; assay type: in vivo; design: scale not given here; settings: 0.12 kg/ha, 28 days
Excerpt: as §1, §2

Sugarbeets = test: Test B pre-emergence on Fallsington silt loam; assay type: in vivo; design: scale not given here; settings: 28 days
Excerpt: as §1, §2

Wheat [4] = test: Test B pre-emergence on Fallsington silt loam; assay type: in vivo; design: scale not given here; settings: 0.03 kg/ha, 28 days
Excerpt: as §1, §2

Mustard = test: Test B pre-emergence on Fallsington silt loam; assay type: in vivo, Brassica arvensis; settings: 28 days
Excerpt: as §1, §2

Cocklebur = test: Test B pre-emergence on Fallsington silt loam; assay type: in vivo, Xanthium pensylvanicum; settings: 28 days
Excerpt: as §1, §2

Pigweed = test: Test B pre-emergence on Fallsington silt loam; assay type: in vivo, Amaranthus retroflexus; settings: 0.03 kg/ha, 28 days
Excerpt: as §1, §2

Nutsedge [5] = test: Test B pre-emergence on Fallsington silt loam; assay type: in vivo, Cyperus rotundus; settings: 0.03 kg/ha, 28 days
Excerpt: as §1, §2

Sorghum [6] = test: Test B pre-emergence on Fallsington silt loam; assay type: in vivo; settings: 0.03 kg/ha, 28 days
Excerpt: as §1, §2

Morningglory [7] = test: Test B pre-emergence on Fallsington silt loam; assay type: in vivo, Ipomoea hederacea; settings: 0.03 kg/ha, 28 days
Excerpt: as §1, §2

Wheat [8] = test: Test C pre-emergence on Fallsington silt loam soil; assay type: in vivo; settings: 0.06 kg/ha, 28 days
Excerpt: The high herbicidal activity of two of the compounds from within the scope of the invention is evident from the results obtained in this test. The experiment concerned pre-emergence applications on soil. The containers used were 25 cm diameter plastic pots filled with Fallsington silt loam. One set of pots was planted to weeds, the seeds of which were uniformly mixed with the top 1.2 cm layer of soil. The species selected were: johnsongrass (Sorghum halepense), barnyardgrass (Echinochloa crusgalli), crabgrass (Digitaria sanguinalis), giant foxtail (Setaria faberii), velvetleaf (Abutilon theophrasti), jimsonweed (Datura stramonium), mustard (Brassica arvensis), and pigweed (Amaranthus retroflexus). Another set of pots were planted to the following crops with from one to four species per pot: corn (planting depth 3.7 cm), cotton, soybeans, sunflower, Clinton oats, wheat, Black Valentine beans, rice, sorghum, peas, flax, and peanuts (all at 2.5 cm depth), cucumbers, cabbage, alfalfa, safflower, sugarbeets, tomato, spinach, barley, and Kentucky bluegrass (all at 1.2 cm depth). Immediately after planting, the test chemical was applied to the soil surfaces dissolved in a non-phytotoxic solvent. One pot from the weed phase and one of each of the crop species were left untreated for the purpose of comparison. The treated and untreated pots were promptly watered with approximatley 4 mm of simultated rainfall and then held in a greenhouse for several weeks. Visual weed and crop response ratings were made 28 days after treatment utilizing the rating system as described above for Test A. The data are given in Table C.

Corn [9] = test: Test F over-the-top soil/foliage treatment; assay type: in vivo; settings: soil/foliage spray; 0.06 kg/ha; ~14 days
Procedure: (§3) The test chemicals, dissolved in a non-phytotoxic solvent, were applied in an overall spray to the foliage and surrounding […] of selected plant species. […] Approximately fourteen days after treatment, all species were visually compared to untreated controls and rated for response to treatment.
(§4) All plant species were seeded in Woodstown sandy loam soil and grown in a greenhouse. The following species were grown in soil contained in plastic pots (25 cm diameter by 13 cm deep): soybeans, cotton, alfalfa, corn, rice, wheet, sorghum, velvetleaf (Abutilon theophrasti), sesbania (Sesbania exaltata), Cassia (Cassia tora), morningglory (Ipomoea hederacea), jimsonweed (Datura stramonium), cocklebur (Xanthium pensylvanicum), crabgrass (Digitaria spp.), nutsedge (Cyperus rotundus), barnyardgrass (Echinochloa crusgalli), giant foxtail (Setaria faberii) and wild oats (Avena fatua). The following species were grown in soil in a paper cup (12 cm diameter by 13 cm deep): sunflower, sugarbeets, and mustard. All plants were sprayed approximately 14 days after planting.

Rice = test: Test F over-the-top soil/foliage treatment; assay type: in vivo; settings: soil/foliage spray; 0.06 kg/ha; ~14 days
Procedure: as §3, §4

Soybeans = test: Test F over-the-top soil/foliage treatment; assay type: in vivo; settings: soil/foliage spray; 0.06 kg/ha; ~14 days
Procedure: as §3, §4

Velvetleaf = test: Test F over-the-top soil/foliage treatment; assay type: in vivo, Abutilon theophrasti; settings: soil/foliage spray; 0.015 kg/ha; ~14 days
Procedure: as §3, §4

Sesbania = test: Test F over-the-top soil/foliage treatment; assay type: in vivo, Sesbania exaltata; design: scale not given here; settings: soil/foliage spray, ~14 days
Procedure: as §3, §4

Morningglory [10] = test: Test F over-the-top soil/foliage treatment; assay type: in vivo, Ipomoea hederacea; settings: soil/foliage spray; 0.06 kg/ha; ~14 days
Procedure: as §3, §4

Alfalfa = test: Test F over-the-top soil/foliage treatment; assay type: in vivo; design: scale not given here; settings: soil/foliage spray, ~14 days
Procedure: as §3, §4

Sorghum [11] = test: Test F over-the-top soil/foliage treatment; assay type: in vivo; design: scale not given here; settings: soil/foliage spray; 0.06 kg/ha; ~14 days
Procedure: as §3, §4

Jimsonweed = test: Test F over-the-top soil/foliage treatment; assay type: in vivo, Datura stramonium; settings: soil/foliage spray; 0.06 kg/ha; ~14 days
Procedure: as §3, §4

Crabgrass = test: Test F over-the-top soil/foliage treatment; assay type: in vivo, Digitaria spp.; design: scale not given here; settings: soil/foliage spray; 0.06 kg/ha; ~14 days
Procedure: as §3, §4

Nutsedge [12] = test: Test F over-the-top soil/foliage treatment; assay type: in vivo, Cyperus rotundus; design: scale not given here; settings: soil/foliage spray, ~14 days
Procedure: as §3, §4

Barnyardgrass [13] = test: Test F over-the-top soil/foliage treatment; assay type: in vivo, Echinochloa crusgalli; design: scale not given here; settings: soil/foliage spray; 0.06 kg/ha; ~14 days
Procedure: as §3, §4

Wheat [14] = test: Test F over-the-top soil/foliage treatment; assay type: in vivo, wheet; design: scale not given here; settings: soil/foliage spray, ~14 days
Procedure: as §3, §4

Giant Foxtail [15] = test: Test F over-the-top soil/foliage treatment; assay type: in vivo, Setaria faberii; design: scale not given here; settings: soil/foliage spray; 0.06 kg/ha; ~14 days
Procedure: as §3, §4

Wild Oats = test: Test F over-the-top soil/foliage treatment; assay type: in vivo, Avena fatua; design: scale not given here; settings: soil/foliage spray; 0.06 kg/ha; ~14 days
Procedure: as §3, §4

In the case of COc1cc(C)nc(NC(=O)NS(=O)(=O)c2ccccc2OS(C)(=O)=O)n1 [Compound 2, 2-Hydroxy-N-[(4-methoxy-6-methylpyrimidin-2-yl)aminocarbonyl]benzenesulfonamide, methanesulfonate], the Barnyardgrass response rating (Barnyardgrass [1]) is reported as 10C, the Johnsongrass response rating (Johnsongrass) is reported as 10C and the “Giant Foxtail response rating” value (Giant Foxtail [2]) is reported as 10C. The “Ky. bluegrass response rating” value (Ky. bluegrass) was 10C, the Corn response rating (Corn [3]) was 10C and the Sugarbeets response rating (Sugarbeets; 0.03 kg/ha) was 10C. For the same molecule, the Sugarbeets response rating (Sugarbeets; 0.12 kg/ha) was 10C, the Wheat response rating (Wheat [4]) was 5G and the Mustard response rating (Mustard; 0.03 kg/ha) was 10C. The Mustard response rating (Mustard; 0.12 kg/ha) was 10C, the Cocklebur response rating (Cocklebur; 0.03 kg/ha) was 5G and the Cocklebur response rating (Cocklebur; 0.12 kg/ha) was 10C. It also gave a Pigweed response rating (Pigweed) of 7G, a Nutsedge response rating (Nutsedge [5]) of 6G and a Sorghum response rating (Sorghum [6]) of 10C. The Morningglory response rating (Morningglory [7]) was 7G, the Wheat response rating (Wheat [8]) was 5G and the Corn response rating (Corn [9]) was 10C. It also gave a Rice response rating (Rice) of 10C, a Soybeans response rating (Soybeans) of 9C and a Velvetleaf response rating (Velvetleaf) of 5G. For the same molecule, the Sesbania response rating (Sesbania; 0.015 kg/ha) was 9C, the Sesbania response rating (Sesbania; 0.06 kg/ha) was 10C and the Morningglory response rating (Morningglory [10]) was 10C. The Alfalfa response rating (Alfalfa; 0.015 kg/ha) was 7C, the Alfalfa response rating (Alfalfa; 0.06 kg/ha) was 10C and the Sorghum response rating (Sorghum [11]) was 10C. The Jimsonweed response rating (Jimsonweed) was 10C, the Crabgrass response rating (Crabgrass) was 10C and the Nutsedge response rating (Nutsedge [12]; 0.015 kg/ha) was 2C. The Nutsedge response rating (Nutsedge [12]; 0.06 kg/ha) was 10C, the Barnyardgrass response rating (Barnyardgrass [13]) was 10C and the Wheat response rating (Wheat [14]; 0.015 kg/ha) was 1C. For the same molecule, the Wheat response rating (Wheat [14]; 0.06 kg/ha) was 9C, the “Giant Foxtail response rating” value (Giant Foxtail [15]) was 10C and the “Wild Oats response rating” value (Wild Oats) was 10C.

Reference: EP0044212B1, “Herbicidal o-alkylsulfonyloxy- and o-alkylsulfonylamino-benzenesulfonamides” (E.I. DU PONT DE NEMOURS AND COMPANY, priority 1980, dated 1982)
